These results are taken from PMC12084297, “Cytoplasmic connexin43-microtubule interactions promote glioblastoma stem-like cell maintenance and tumorigenicity” (Cell Death & Disease, 2025).

For data set [1], the system named is VTC-037 GSCs. Kind of data set: MTS viability, VTC-037 GSCs. Format: cell-based, human. Particulars: 4 days. How it is done: Cells were plated in 96-well plates (2000–5000 cells per well) and treated the following day with TMZ (10, 50, or 100 μM), antennapedia, JM2-scrambled, or JM2 (10, 50, or 100 μM). After 4 days, cell viability was monitored following addition of MTS reagent (Promega) according to manufacturer’s instructions. The absorbance at 490 nm was measured using a SpectraMax i3 or iD3 microplate reader (Molecular Devices). For the caspase 3/7 activity assay, cells were plated in 96-well plates (2000 cells per well) and treated with TMZ or peptides as described above. The activity of caspase 3/7 was measured after 48 h using the Caspase-Glo® 3/7 assay (Promega) following the manufacturer’s instructions. Fold change of caspase 3/7 activity was defined as the ratio of caspase 3/7 luminescence in treated cells compared to controls.

Data set [2] concerns Cx43/α-tubulin interaction. Kind of data set: Co-immunoprecipitation with α-tubulin antibody: Cx43 interaction with α-tubulin. Format: cell-based, human. The following applies: VTC-037 GSCs, 50 μM, 24 h, cross-linked (DTBP). How it is done:
Prior to lysis, cross-linking was completed by incubating cells in DTBP (dimethyl 3,3’-dithiobispropionimidate; 2 mM in PBS) for 30 min at 37 °C followed by a glycine quench (100 mM glycine in PBS) for 15 min at room temperature. Cross-linked samples were lysed in RIPA buffer supplemented with Halt^TM Protease and Phosphatase Inhibitor Cocktail as described above, but without sonication. Co-immunoprecipitation (co-IP) assays were also performed without cross-linking; non-cross-linked samples were lysed using a co-IP lysis buffer (0.5% Triton X-100, 50 mM Tris HCl, 150 mM NaCl, 1 mM EDTA, 1 mM EGTA, 1 mM DTT, 0.1 mM Na3VO4, and 1 mM NaF) supplemented with Halt^TM Protease and Phosphatase Inhibitor Cocktail, without sonication. Protein concentration was quantified using the DC protein assay and a standard curve obtained with increasing concentrations of BSA, and 500 μg of total protein was used per reaction for co-IP. Inputs were removed prior to co-IP and denatured in Bolt LDS sample buffer as described above. Remaining protein lysates were incubated with Protein G Sepharose^TM 4 Fast Flow beads (GE Healthcare) for pre-clearance for 30 min at 4 °C. Samples were incubated with 2 μg of mouse anti-α-tubulin (MilliporeSigma, T6199) for cross-linked samples or mouse anti-Cx43 antibody (EMD Millipore; MAB3067) for non-cross-linked samples for 90 min at 4 °C. […]

Data set [3] deals with VTC-037 GSCs. Kind of data set: Peptide uptake by confocal Z-stack with WGA, VTC-037 GSCs. The following applies: 50 μM, 24 h, WGA membrane label. Format: in vitro ADME, human.
For data set [4], the system named is Cx43/α-tubulin interaction. Kind of data set: STORM localization, cross-pair correlation of Cx43/α-tubulin interaction in VTC-037 GSCs. Format: cell-based, human. The following applies: 50 μM, 24 h, n = 10. How it is done:
Cells were washed once with warm PBS before fixing in 4% paraformaldehyde for 20 min at room temperature or ice-cold methanol for 5 min on ice, washed twice, and held in PBS at 4°C until immunostaining was conducted. Cells were permeabilized and blocked in 5% normal goat or donkey serum (Fisher Scientific) and 0.1% Triton X-100 in PBS for 2 h at room temperature. Primary antibodies rabbit anti-Cx43 (MilliporeSigma; C6219), mouse anti-pan Cadherin (MilliporeSigma; C1821), or mouse anti-α-tubulin (MilliporeSigma; T6199) were diluted in blocking buffer and labeling was performed overnight at 4 °C. […]
Stochastic optical reconstruction microscopy (STORM) acquisition was conducted with a Vutara 350 microscope (Bruker). […] To quantify the spatial relationship between target proteins localized by STORM, we utilized cross-pair correlation analysis. […]

VFFKGVKDRVKGRSD [JM2]: the “GSC viability with JM2 alone in combination experiment (MTS)” value in data set [1] (VTC-037 adherent GSCs, 100 μM) is reported as “significantly decreased GSC viability”. The “GSC survival (MTS)” value in data set [1] (VTC-037 adherent GSCs, 10, 50 or 100 μM) is “significantly decreased VTC-001, VTC-034, and VTC-037 GSC survival when cultured as adherent cells in a dose-dependent manner”. Besides, in data set [2], the “Cx43 interaction with α-tubulin (co-IP)” value is on record as “decrease in Cx43 interaction with α-tubulin”. Moreover, the “Peptide enrichment within cells (Z-stack 3D projection)” value in data set [3] is “enrichment of JM2 (red) within cells”. Also, the “Cx43-microtubule interaction (cross-pair correlation)” value in data set [4] is recorded as “impaired this interaction in situ”.
